Test results reported in patent US9408856B2, “Topical steroidal formulations” (Temple University—Of The Commonwealth System of Higher …, priority 2008, dated 2016).
Entries after “also recorded” stand apart in the source; their conditions may differ.

Tests used:
[1] = system: dexamethasone-induced thymic and splenic atrophy; assay: Dexamethasone-induced thymic and splenic atrophy in mice; format: in vivo, CD-1 mice; conditions: for protection against DEX-induced thymic and splenic atrophy: CD-1 mice
Procedure: Administration of dehydroepiandrosterone (DHEA, 60 mg/kg, s.c.) for three days partially reverse thymic and splenic atrophy induced by a single injection of dexamethasone (1.6 mg/mouse). In this experiment, the efficacy of either 10 mg/kg or 20 mg/kg DHEA administered s.c. versus the effect of 10 mg/kg or 20 mg/kg fluasterone was investigated.
5% Cremophor (polyethoxylated castor oil; Sigma Chemicals)-95% saline vehicle was prepared using 95 mL of sterile 0.9% NaCl (filtered through sterile 0.22 micron filter) and 5 mL of Cremophor. The Cremophor was dissolved by swirling for approximately 5 minutes.
Dexamethasone solutions were prepared by dissolving dexamethasone (Sigma Chemicals) in absolute ethanol. For example, 71.9 mg of dexamethasone was dissolved in 2.9 mL of absolute ethanol. In order to prevent precipitation, the solution was kept on a hotplate between injections.
For the 10 mg/kg suspension, 25.7 mg of DHEA was weighed out, transferred to a glass scintillation vial, and 10.3 mL of the Cremophor-saline vehicle was added. The DHEA suspension was homogenized using a Tissumizer at 80% power for 30 sec. The Tissumizer was rinsed with 70% ethanol prior to homogenization. After the 10 mg/kg DHEA suspension was homogenized the probe was rinsed 2× with 50 mL of absolute ethanol, then with 50 mL of 70% ethanol, and then dried with sterile gauze. For the 20 mg/kg DHEA suspension, 50.9 mg DHEA was suspended in 10.2 mL of Cremophor-saline vehicle.
19.4 mg of fluasterone was weighed out and transferred to a glass scintillation vial. 7.8 mL of Cremophor-saline vehicle was added to the vial and the contents of the vial were homogenized with a Tissumizer as described previously. Prior to preparing the 20 mg/kg fluasterone, the probe was rinsed 2× with 50 mL of absolute ethanol and 1× with 50 mL of 70% ethanol. For the 20 mg/kg suspension, 47.0 mg was weighed out and transferred to a glass scintillation vial. 9.4 mL of Cremophor-saline vehicle was added to the vial and the contents of the vial were homogenized with a Tissumizer as described above.
Female CD-1 mice, 43-45 days old, were obtained from Charles River Laboratories. The mice were housed 5 per cage in plastic shoebox cages with ad libitum access to Purina chow 5015 and water in the Pharmacy CAF with 12 hr of alternating light and darkness.
Prior to the experiment the mice were weighed, separated into 6 groups containing 5 mice each and treated as follows:
Mice were treated s.c. with 0.1 mL of 5% Cremophor-95% saline for three days. On the third day, the mice were also treated s.c. with 1.6 mg of dexamethasone dissolved in 0.06 mL of absolute. ethanol.
Mice were treated s.c. with 0.25 mg of DHEA suspended in 0.1 mL of 5% Cremophor-95% saline for three days. On the third day, the mice were also treated s.c. with 1.6 mg of dexamethasone dissolved in 0.06 mL of absolute ethanol.
Mice were treated s.c. with 0.5 mg of DHEA suspended in 0.1 mL of 5% Cremophor-95% saline for three days. On the third day, the mice were also treated s.c. with 1.6 mg of dexamethasone dissolved in 0.06 mL of absolute ethanol.
Mice were treated s.c. with 0.25 mg of fluasterone suspended in 0.1 mL of 5% Cremophor-95% saline for three days. On the third day, the mice were also treated s.c. with 1.6 mg of dexamethasone dissolved in 0.06 mL of absolute ethanol.
Mice were treated s.c. with 0.5 mg of fluasterone suspended in 0.1 mL of 5% Cremophor-95% saline for three days. On the third day, the mice were also treated s.c. with 1.6 mg of dexamethasone dissolved in 0.06 mL of absolute ethanol.
All s.c. injections were made in the nape. All mice were lightly anesthetized while the s.c. injections were done.
Twenty-four hours after dexamethasone treatment, the mice were euthanized by an overdose of isoflurane. The spleen and thymus were removed, cleaned of any adventitia, rinsed, blotted on filter paper, and weighed. […]

[2] = Oral single dose PK experiment in mice; format: in vivo; conditions: 200 mg/kg oral single dose
Procedure: An oral single dose PK experiment in mice following administration of 200 mg/kg fluasterone was performed. The calculated AUC0-24 was 2,242 (ngXh/mL). A PK study was also performed in 12 human volunteers as part of a phase I fluasterone study. The volunteers received either 800 mg or 1600 mg fluasterone orally as a daily dose. The AUC0-24/mg dose was calculated.

[3] = system: TPA-stimulated epidermal DNA synthesis in mouse epidermis; assay: TPA-induced epidermal DNA synthesis in mouse epidermis, oral fluasterone; format: in vivo, CD-1 mice; conditions: Table 20; TPA 2 μg topical after sesame oil and suspension vehicle p.o. only; 20 h; group mean
[4] = Table 12, 10 mg/kg s.c. 3 days + dexamethasone 1.6 mg s.c. on day 3, 24 h after dexamethasone
[5] = Table 12, 20 mg/kg s.c. 3 days + dexamethasone 1.6 mg s.c. on day 3, 24 h after dexamethasone
[6] = Table 14, micronized steroid 10 mg/kg + dexamethasone
[7] = Table 14, micronized steroid 20 mg/kg + dexamethasone
[8] = Table 15, steroid 10 mg/kg in Cremophor-saline + dexamethasone
[9] = Table 16, steroid 5 mg/kg + dexamethasone
[10] = Table 16, steroid 10 mg/kg + dexamethasone

In the case of `C[C@]12CCCCC1=CC[C@@H]1[C@@H]2CC[C@]2(C)C(=O)[C@H](F)C[C@@H]12` [Fluasterone, 16α-fluoro-5-androsten-17-one], the “protection against DEX-induced thymic and splenic atrophy” value ([1]; 5 mg/kg) is reported as “significant protection”, the “protection against DEX-induced thymic and splenic atrophy” value ([1]; 10 mg/kg) is reported as “highly active; also recorded: as active as DHEA at 60 mg/kg” and the “potency relative to DHEA in protecting against dexamethasone-induced thymic and splenic atrophy” value ([1]; Example 8, micronized) is reported as “about 6 ×”. For the same compound, the “Body Weight” value [1, 4] was 24.3 ± 1.0, the Spleen wt [1, 4] was 77.5 ± 14.4 and the “Spleen wt/BW” value [1, 4] was 3.2 ± 0.5. For the same compound, the Thymus wt [1, 4] was 60.9 ± 5.2, the “Thymus wt/BW” value [1, 4] was 2.5 ± 0.3 and the “Body Weight” value [1, 5] was 25.2 ± 0.6. For the same compound, the Spleen wt [1, 5] was 73.9 ± 13.8, the “Spleen wt/BW” value [1, 5] was 2.9 ± 0.6 and the Thymus wt [1, 5] was 60.8 ± 5.3. For the same compound, the “Thymus wt/BW” value [1, 5] was 2.4 ± 0.2, the “Body Weight” value [1, 6] was 26.7 ± 3.6 and the Spleen wt [1, 6] was 83.0 ± 6.2. The “Spleen wt/BW” value [1, 6] was 3.1 ± 0.3, the Thymus wt [1, 6] was 68.0 ± 11.5 and the “Thymus wt/BW” value [1, 6] was 2.5 ± 0.3. For the same compound, the “Body Weight” value [1, 7] was 27.2 ± 3.1, the Spleen wt [1, 7] was 83.1 ± 7.9 and the “Spleen wt/BW” value [1, 7] was 3.1 ± 0.4. For the same compound, the Thymus wt [1, 7] was 66.3 ± 9.0, the “Thymus wt/BW” value [1, 7] was 2.4 ± 0.2 and the “Body Weight” value [1, 8] was 24.8 ± 0.8. The Spleen wt [1, 8] was 80.0 ± 7.7, the “Spleen wt/BW” value [1, 8] was 3.2 ± 0.4 and the Thymus wt [1, 8] was 67.5 ± 3.9. The “Thymus wt/BW” value [1, 8] was 2.7 ± 0.2, the “Body Weight” value [1, 9] was 25.7 ± 1.7 and the Spleen wt [1, 9] was 62.0 ± 10.2. The “Spleen wt/BW” value [1, 9] was 2.4 ± 0.3, the Thymus wt [1, 9] was 50.8 ± 10.9 and the “Thymus wt/BW” value [1, 9] was 2.0 ± 0.3. For the same compound, the “Body Weight” value [1, 10] was 25.2 ± 1.4, the Spleen wt [1, 10] was 89.4 ± 12.3 and the “Spleen wt/BW” value [1, 10] was 3.5 ± 0.4. The Thymus wt [1, 10] was 65.6 ± 4.4, the “Thymus wt/BW” value [1, 10] was 2.6 ± 0.2 and the “Approximate Potency Compared to Fluasterone in Protecting Against DEX-induced Thymic and Splenic Involution” value ([1]; fluasterone = 1, mice) was 1. For the same compound, the “rank of activity among steroids tested against DEX-induced thymic and splenic involution” value ([1]; mice) was “most active steroid tested”, the “rank of activity among steroids tested against DEX-induced thymic and splenic involution” value ([1]; mice, listed as fluasterone) was “most potent compound” and the AUC0-24 [2] was 2,242 ngXh/mL.
In the case of `CCCCCCCCCCCCCC(=O)O[C@@H]1[C@@H](C)[C@@]2(O)[C@@H](C=C(CO)C[C@]3(O)C(=O)C(C)=C[C@@H]23)[C@@H]2C(C)(C)[C@]12OC(C)=O` [TPA, 12-O-tetradecanoylphorbol-13-acetate, reference compound], the “cpm/μg DNA” value [3] is reported as 374.1 ± 16.8 cpm/μg DNA and the “dpm/μg DNA” value [3] is reported as 603.4 ± 36.8 dpm/μg DNA.
